Patent US9808003B2, “Herbicidally active 2-(substituted-phenyl)-cyclopentane-1,3-dione compounds and derivatives thereof” (Syngenta Limited, priority 2013, dated 2017)

Assays:
Assay in all cases: Test 1A glasshouse assay, post-emergence herbicidal activity
Type in all cases: in vivo
[1] = test system: Echinochloa crus-galli (ECHCG); conditions: application rate 250 g/ha, 13 days after application, visual (100%=total damage; 0%=no damage); for pest or weed control at 250 g/ha: Echinochloa crus-galli, 312 h, read-out: Post-emergence Herbicidal Activity (% Phytotoxicity) ECHCG
Protocol: (§1) Seeds of a variety of test species were sown in standard soil in pots. After cultivation for one day (pre-emergence) or after 8 days cultivation (post-emergence) under controlled conditions in a glasshouse (at 24/16° C., day/night; 14 hours light; 65% humidity), the plants were sprayed with an aqueous spray solution derived from the formulation of the technical active ingredient in acetone/water (50:50) solution containing 0.5% Tween 20 (polyoxyethelyene sorbitan monolaurate, CAS RN 9005-64-5). The test plants were then grown under controlled conditions in a glasshouse (at 24/16° C., day/night; 14 hours light; 65% humidity) and watered twice daily. 13 days after application of the test herbicide, for pre- and post-emergence, the test was evaluated visually for percentage phytotoxicity to the plant (where 100%=total damage to plant; 0%=no damage to plant).
(§2) Lolium perenne (LOLPE), Alopecurus myosuroides (ALOMY), Echinochloa crus-galli (ECHCG), and Avena fatua (AVEFA); these are all grassy monocotyledonous weeds.

[2] = test system: Avena fatua (AVEFA); conditions: application rate 250 g/ha, 13 days after application, visual (100%=total damage; 0%=no damage); for pest or weed control at 250 g/ha: Avena fatua, 312 h, read-out: Post-emergence Herbicidal Activity (% Phytotoxicity) AVEFA
Protocol: as §1, §2

[3] = test system: Alopecurus myosuroides (ALOMY); conditions: application rate 250 g/ha, 13 days after application, visual (100%=total damage; 0%=no damage); for pest or weed control at 250 g/ha: Alopecurus myosuroides, 312 h, read-out: Post-emergence Herbicidal Activity (% Phytotoxicity) ALOMY
Protocol: as §1, §2

[4] = test system: Lolium perenne (LOLPE); conditions: application rate 250 g/ha, 13 days after application, visual (100%=total damage; 0%=no damage); for pest or weed control at 250 g/ha: Lolium perenne, 312 h, read-out: Post-emergence Herbicidal Activity (% Phytotoxicity) LOLPE
Protocol: as §1, §2

Cc1cc(C)c(C2C(=O)CC(CCNC(=O)c3cccc(Br)n3)C2=O)c(C)c1 (stereo not drawn) [Compound A48]
pest or weed control at 250 g/ha [1]: 100% | pest or weed control at 250 g/ha [2]: 90% | pest or weed control at 250 g/ha [3]: 100% | pest or weed control at 250 g/ha [4]: 100%

Cc1cc(C)c(C2C(=O)CC(CCNC(=O)C(F)c3ccccc3)C2=O)c(C)c1 (stereo not drawn) [Compound A50]
pest or weed control at 250 g/ha [1]: 70% | pest or weed control at 250 g/ha [2]: 70% | pest or weed control at 250 g/ha [3]: 20% | pest or weed control at 250 g/ha [4]: 100%

Cc1cc(C)c(C2C(=O)CC(CCNC(=O)c3nonc3C)C2=O)c(C)c1 (stereo not drawn) [Compound A51]
pest or weed control at 250 g/ha [1]: 90% | pest or weed control at 250 g/ha [2]: 90% | pest or weed control at 250 g/ha [3]: 100% | pest or weed control at 250 g/ha [4]: 100%

Cc1cc(C)c(C2C(=O)CC(CCNC(=O)c3cc4ccccc4n3C)C2=O)c(C)c1 (stereo not drawn) [Compound A52]
pest or weed control at 250 g/ha [1]: 100% | pest or weed control at 250 g/ha [2]: 70% | pest or weed control at 250 g/ha [3]: 70% | pest or weed control at 250 g/ha [4]: 90%

Cc1cc(C)c(C2C(=O)CC(CCNC(=O)c3cscn3)C2=O)c(C)c1 (stereo not drawn) [Compound A53]
pest or weed control at 250 g/ha [1]: 100% | pest or weed control at 250 g/ha [2]: 90% | pest or weed control at 250 g/ha [3]: 80% | pest or weed control at 250 g/ha [4]: 100%

Cc1cc(C)c(C2C(=O)CC(CCNC(=O)c3nn(C)nc3C)C2=O)c(C)c1 (stereo not drawn) [Compound A54]
pest or weed control at 250 g/ha [1]: 60% | pest or weed control at 250 g/ha [2]: 100% | pest or weed control at 250 g/ha [3]: 100% | pest or weed control at 250 g/ha [4]: 100%

Cc1cc(C)c(C2C(=O)CC(CCNC(=O)c3cnccn3)C2=O)c(C)c1 (stereo not drawn) [Compound A55]
pest or weed control at 250 g/ha [1]: 90% | pest or weed control at 250 g/ha [2]: 60% | pest or weed control at 250 g/ha [3]: 80% | pest or weed control at 250 g/ha [4]: 90%

Cc1cc(C)c(C2C(=O)CC(CCNC(=O)c3cnc(C)cn3)C2=O)c(C)c1 (stereo not drawn) [Compound A56]
pest or weed control at 250 g/ha [1]: 90% | pest or weed control at 250 g/ha [2]: 90% | pest or weed control at 250 g/ha [3]: 100% | pest or weed control at 250 g/ha [4]: 100%

Cc1cc(C)c(C2C(=O)CC(CCNC(=O)c3ccc(C#N)cn3)C2=O)c(C)c1 (stereo not drawn) [Compound A57A]
Post-emergence Herbicidal Activity (% Phytotoxicity) ECHCG [1]: 90% | Post-emergence Herbicidal Activity (% Phytotoxicity) AVEFA [2]: 90% | Post-emergence Herbicidal Activity (% Phytotoxicity) ALOMY [3]: 100% | Post-emergence Herbicidal Activity (% Phytotoxicity) LOLPE [4]: 90%

Cc1cc(C)c(C2C(=O)CC(CCNC(=O)c3ccc(C#N)cn3)C2=O)c(C)c1 (stereo not drawn) [Compound A57]
pest or weed control at 250 g/ha [1]: 100% | pest or weed control at 250 g/ha [2]: 100% | pest or weed control at 250 g/ha [3]: 100% | pest or weed control at 250 g/ha [4]: 100%

Cc1cc(C)c(C2C(=O)CC(CCNC(=O)c3cccn3C)C2=O)c(C)c1 (stereo not drawn) [Compound A58]
pest or weed control at 250 g/ha [1]: 50% | pest or weed control at 250 g/ha [2]: 30% | pest or weed control at 250 g/ha [3]: 50% | pest or weed control at 250 g/ha [4]: 80%

Cc1cc(C)c(C2C(=O)CC(CCNC(=O)c3nccn3C)C2=O)c(C)c1 (stereo not drawn) [Compound A59]
pest or weed control at 250 g/ha [1]: 30% | pest or weed control at 250 g/ha [2]: 60% | pest or weed control at 250 g/ha [3]: 60% | pest or weed control at 250 g/ha [4]: 80%

Cc1cc(C)c(C2C(=O)CC(CCNC(=O)c3cnsn3)C2=O)c(C)c1 (stereo not drawn) [Compound A60]
pest or weed control at 250 g/ha [1]: 70% | pest or weed control at 250 g/ha [2]: 90% | pest or weed control at 250 g/ha [3]: 80% | pest or weed control at 250 g/ha [4]: 80%

Cc1cc(C)c(C2C(=O)CC(CCNC(=O)c3cc(C)on3)C2=O)c(C)c1 (stereo not drawn) [Compound A61]
pest or weed control at 250 g/ha [1]: 70% | pest or weed control at 250 g/ha [2]: 60% | pest or weed control at 250 g/ha [3]: 90% | pest or weed control at 250 g/ha [4]: 100%

Cc1cc(C)c(C2C(=O)CC(CCNC(=O)c3ncccc3C)C2=O)c(C)c1 (stereo not drawn) [Compound A62]
pest or weed control at 250 g/ha [1]: 80% | pest or weed control at 250 g/ha [2]: 80% | pest or weed control at 250 g/ha [3]: 100% | pest or weed control at 250 g/ha [4]: 100%

Cc1cc(C)c(C2C(=O)CC(CCNC(=O)c3nccc4ccccc34)C2=O)c(C)c1 (stereo not drawn) [Compound A63]
pest or weed control at 250 g/ha [1]: 90% | pest or weed control at 250 g/ha [2]: 90% | pest or weed control at 250 g/ha [3]: 90% | pest or weed control at 250 g/ha [4]: 100%

Cc1cc(C)c(C2C(=O)CC(CCNC(=O)c3cccc(C)n3)C2=O)c(C)c1 (stereo not drawn) [Compound A64]
pest or weed control at 250 g/ha [1]: 60% | pest or weed control at 250 g/ha [2]: 80% | pest or weed control at 250 g/ha [3]: 90% | pest or weed control at 250 g/ha [4]: 80%

COc1cc(Cl)nc(C(=O)NCCC2CC(=O)C(c3c(C)cc(C)cc3C)C2=O)c1 (stereo not drawn) [Compound A65]
pest or weed control at 250 g/ha [1]: 80% | pest or weed control at 250 g/ha [2]: 70% | pest or weed control at 250 g/ha [3]: 100% | pest or weed control at 250 g/ha [4]: 80%

Cc1cc(C)c(C2C(=O)CC(CCNC(=O)c3cccc(N)n3)C2=O)c(C)c1 (stereo not drawn) [Compound A66]
pest or weed control at 250 g/ha [1]: 70% | pest or weed control at 250 g/ha [2]: 40% | pest or weed control at 250 g/ha [3]: 80% | pest or weed control at 250 g/ha [4]: 60%

COc1cc(OC)nc(C(=O)NCCC2CC(=O)C(c3c(C)cc(C)cc3C)C2=O)n1 (stereo not drawn) [Compound A69]
pest or weed control at 250 g/ha [1]: 30% | pest or weed control at 250 g/ha [2]: 70% | pest or weed control at 250 g/ha [3]: 50% | pest or weed control at 250 g/ha [4]: 60%

Cc1cc(C)c(C2C(=O)CC(CCNC(=O)c3ncc(C)nc3N)C2=O)c(C)c1 (stereo not drawn) [Compound A70]
pest or weed control at 250 g/ha [1]: 90% | pest or weed control at 250 g/ha [2]: 90% | pest or weed control at 250 g/ha [3]: 100% | pest or weed control at 250 g/ha [4]: 100%

Cc1cc(C)c(C2C(=O)CC(CCNC(=O)c3nc(C)oc3C(F)(F)F)C2=O)c(C)c1 (stereo not drawn) [Compound A71]
pest or weed control at 250 g/ha [1]: 80% | pest or weed control at 250 g/ha [2]: 90% | pest or weed control at 250 g/ha [3]: 100% | pest or weed control at 250 g/ha [4]: 100%

Cc1cc(C)c(C2C(=O)CC(CCNC(=O)c3cc(C)nn3C)C2=O)c(C)c1 (stereo not drawn) [Compound A72]
pest or weed control at 250 g/ha [1]: 70% | pest or weed control at 250 g/ha [2]: 90% | pest or weed control at 250 g/ha [3]: 90% | pest or weed control at 250 g/ha [4]: 90%

Cc1cc(C)c(C2C(=O)CC(CCNC(=O)c3csc(C)n3)C2=O)c(C)c1 (stereo not drawn) [Compound A73]
pest or weed control at 250 g/ha [1]: 90% | pest or weed control at 250 g/ha [2]: 90% | pest or weed control at 250 g/ha [3]: 90% | pest or weed control at 250 g/ha [4]: 80%

Cc1cc(C)c(C2C(=O)CC(CCNC(=O)c3n[nH]c4ccccc34)C2=O)c(C)c1 (stereo not drawn) [Compound A74]
pest or weed control at 250 g/ha [1]: 70% | pest or weed control at 250 g/ha [2]: 30% | pest or weed control at 250 g/ha [3]: 90% | pest or weed control at 250 g/ha [4]: 80%

Cc1cc(C)c(C2C(=O)CC(CCNC(=O)c3cc(C)n(C)n3)C2=O)c(C)c1 (stereo not drawn) [Compound A75]
pest or weed control at 250 g/ha [1]: 90% | pest or weed control at 250 g/ha [2]: 90% | pest or weed control at 250 g/ha [3]: 90% | pest or weed control at 250 g/ha [4]: 90%

Cc1cc(C)c(C2C(=O)CC(CCNC(=O)c3c(C)nc4ccccn34)C2=O)c(C)c1 (stereo not drawn) [Compound A76]
pest or weed control at 250 g/ha [1]: 80% | pest or weed control at 250 g/ha [2]: 90% | pest or weed control at 250 g/ha [3]: 70% | pest or weed control at 250 g/ha [4]: 60%

Cc1cc(C)c(C2C(=O)CC(CCNC(=O)c3nn(C)cc3C(F)(F)F)C2=O)c(C)c1 (stereo not drawn) [Compound A77]
pest or weed control at 250 g/ha [1]: 90% | pest or weed control at 250 g/ha [2]: 90% | pest or weed control at 250 g/ha [3]: 70% | pest or weed control at 250 g/ha [4]: 90%

Cc1cc(C)c(C2C(=O)CC(CCNC(=O)c3nc(C)ncc3Br)C2=O)c(C)c1 (stereo not drawn) [Compound A78]
pest or weed control at 250 g/ha [1]: 80% | pest or weed control at 250 g/ha [2]: 80% | pest or weed control at 250 g/ha [3]: 80% | pest or weed control at 250 g/ha [4]: 60%

Cc1cc(C)c(C2C(=O)CC(CCNC(=O)c3sc(C)nc3C)C2=O)c(C)c1 (stereo not drawn) [Compound A79]
pest or weed control at 250 g/ha [1]: 70% | pest or weed control at 250 g/ha [2]: 80% | pest or weed control at 250 g/ha [3]: 80% | pest or weed control at 250 g/ha [4]: 70%
